Among the data in patent US4528380A, “5-(1-Propyl)n-butyl tetrazoles” (Delalande S.A., priority 1981, dated 1985) are ED50 and LD50 values, retold here.

Some results are limits rather than exact numbers.

The test system of data set [1] is mortality induced by bicucullin. As to the kind of experiment: Protection against mortality induced by intravenous bicucullin (anti-convulsive activity). The following applies: Mus musculus, ip; mice, compound i.p.; intravenous injection of 0.7 mg/kg of bicucullin; read-out: ED 50 against mortality induced by bicucullin. Type of data set: in vivo.
Data set [2] is described as follows: Acute toxicity, intraperitoneal, method of Miller and Tainter. Particulars: mouse, in vivo, ip, mice, read-out: Acute toxicity LD 50. Here is the method: Acute toxicity is assessed intraperitoneally on mice according to the method of Miller and Tainter described in Proc. Soc. Exp. Biol. Med. 57, 261, (1944).

Turning to `CCC(C)(C)c1nn[nH]n1` [compound 1], in data set [1], the ED50 stood at 100 mg/kg. Also, the LD50 in data set [2] was greater than 400 mg/kg.
In the case of `CCCCC(C)(CC)c1nn[nH]n1` (centres unmarked) [compound 3], the ED50 in data set [1] stood at 120 mg/kg. For the same compound, the LD50 in data set [2] was 320 mg/kg.
Consider `CCCC(CCC)(CCC)c1nn[nH]n1` [compound 5], for which, in data set [1], the ED50 stood at 44 mg/kg. Also, the LD50 in data set [2] stood at 280 mg/kg.
On to `CCCC(CCC)c1nn[nH]n1` [compound 6, [1-(1-n propyl)nbutyl] tetrazole], for which the ED50 in data set [1] is 135 mg/kg. Moreover, the LD50 in data set [2] was greater than 400 mg/kg.
